Data taken from patent publication US8921383B2, “Thiazolopyrimidine compounds” (Hoffmann-La Roche Inc., priority 2011, dated 2014).

Biological target: T1, purified recombinant human SYK360-635 (Homo sapiens, UniProt P43405)
T1 construct: truncated construct of Spleen Tyrosine Kinase aa 360-635; GST; made in house
Experiment: SYK kinase assay: 33P γATP incorporation into biotinylated peptide substrate, IC50 determination
Assay type: biochemical
Conditions: SYK 0.5 nM, ATP 20 μM, DYE peptide 5 μM, 30° C. 15 min; read-out: IC50 h-syk-gst-sf9-c (inactive-dephosphorylated)
Procedure: Determination of IC50 of Spleen Tyrosine Kinase (SYK) Inhibition:
SYK kinase assay is a standard kinase assay adapted to a 96 well plate format. This assay is performed in 96-well format for IC50 determination with […] which represented 10 half log dilutions and a 40 μL reaction volume. The assay measures the incorporation of radiolabeled ^33P γATP into an N-terminally biotinylated peptide substrate, derived from naturally occurring phosphoacceptor consensus sequence (Biotin-11aa DY*E). Phosphorylated products were detected upon termination of reactions with EDTA and the addition of Streptavidin coated beads.
Assay plates: 96-well MultiScreen 0.65 um filter plates (Millipore Cat. No.: MADVNOB10)
BSA: Bovine Serum Albumin Fraction V, fatty acid free (Roche Diagnostics GmbH, Cat. No. 9100221) diluted to a final concentration of 0.1%
Assay Dilution Buffer (ADB): 50 mM HEPES, 0.1 mM EGTA, 0.1 mM Na Vanadate, 0.1 mM β-glycerophosphate, 10 mM MgCl2, 1 mM DTT, 0.1% BSA, pH 7.5
Bead wash buffer: 10 g/L PBS (Phosphate buffered saline) with 2M NaCl+1% phosphoric acid.
DMSO and the mixture was incubated for 10 min at RT.
The kinase reaction was initiated by the addition of 10 μL 4× substrate cocktail containing the DYE peptide substrate [0 or 5 μM], ATP [20 μM] and ^33PγATP [2 μCi/r×n]. After incubation at 30° C. for 15 min, the reaction was terminated by the transfer of 25 μL of the reaction sample to a 96 well 0.65 μm Millipore MADVNOB membrane/plate containing 200 μL 5 mM EDTA and 20% Streptavidine coated beads in PBS.
After the last wash membrane/plates were transferred to an adaptor plate, heat dried for 15 min at 60° C., and 50 μL scintillation cocktail was added to each well and 4 h later the amount of radioactivity was counted in a top counter.

IC50 [nM]	Compound
278	COc1ccc(Nc2nc(-c3ccc(C(=O)NCCN(C)C)cc3)nc3scnc23)cc1OC [Compound I-66, 4-(7-(3,4-Dimethoxyphenylamino)thiazolo[5,4-d]pyrimidin-5-yl)-N-(2-(dimethylamino)ethyl)benzamide]
233	COc1ccc(Nc2nc(-c3cccc(C(N)=O)c3)nc3scnc23)cc1OC [Compound I-68, 3-[7-(3,4-Dimethoxy-phenylamino)-thiazolo[5,4-d]pyrimidin-5-yl]-benzamide]

The remaining lines, values behind:

Compound	IC50 [nM]
COc1ccc(Nc2nc(-c3cccc(C(=O)Nc4ccc(C5SC(=O)NC5=O)cc4)c3)nc3scnc23)cc1OC (centres unmarked) [Compound I-63, 3-[7-(3,4-Dimethoxy-phenylamino)-thiazolo[5,4-d]pyrimidin-5-yl]-N-[4-(2,4-dioxo-thiazolidin-5-yl)-phenyl]-benzamide]	53
COc1ccc(Nc2nc(-c3ccc(C(N)=O)cc3)nc3scnc23)cc1OC [Compound I-64, 4-[7-(3,4-Dimethoxy-phenylamino)-thiazolo[5,4-d]pyrimidin-5-yl]-benzamide]	113
C[C@H]1CCCN1c1cccc(Nc2nc(-c3ccc(C(=O)NCCN(C)C)cc3)nc3scnc23)c1 [Compound I-65, (S)-N-(2-(Dimethylamino)ethyl)-4-(7-(3-(2-methylpyrrolidin-1-yl)phenylamino)thiazolo[5,4-d]pyrimidin-5-yl)benzamide]	351
